Patent publication US11969400B2, “Ibuprofen for symptomatic treatment of diarrheas in HIV patients” (priority 2021, dated 2024)

Tested on: noninfectious diarrhea in HIV positive subjects
Experiment: Randomized double-blinded study of Acetaminophen vs Ibuprofen suspension in HIV positive subjects with noninfectious diarrhea
Type: in vivo, human
Conditions: for average number of stools twenty-four hours later: after 24 hours of treatment, clear liquid diet, range in brackets, two-tailed p <0.0001 between groups, 95% CI 1.44-2.6; for average number of stools on the first visit (day 1): baseline at first visit (day 1), 42 enrollees per group
Experimental: HIV positive subjects who present with noninfectious diarrhea are enrolled in a study. All enrollees are randomly divided into two groups A (Acetaminophen) and B (Ibuprofen) and treated for 24 hours. They receive a double-blinded suspension of either Acetaminophen or Ibuprofen during the study period. The enrollees are instructed to consume only a clear liquid diet during the study period. After 24 hours, the number of loose stools since last visit and status of hydration are reassessed. In addition, enrollees are examined and assessed for any possible side effects of the medications. A total of 84 patients are enrolled into the study. Both drug categories has 42 (50%) enrollees. Two patients are lost to follow up in each group. The average number of stools on the first visit (day 1) in group A (Acetaminophen) is 5.12 and the average number of stools in group B (ibuprofen) is 5.25. Twenty-four hours later, the average number of stools, in group A is 3.45 (1-5) and the average number of stool in group B, is 1.9 (0-4). The two-tailed p-value was <0.0001 with a confidence interval at 95% (1.44-2.6).

Compound | average number of stools twenty-four hours later | average number of stools on the first visit (day 1)
CC(=O)Nc1ccc(O)cc1 [Acetaminophen] | 3.45 (1-5) | 5.12
CC(C)Cc1ccc(C(C)C(=O)O)cc1 (stereo not shown) [ibuprofen] | 1.9 (0-4) | 5.25
